Source: patent US12410160B2 (Gilead Sciences, Inc., priority 2021, dated 2025)

How the values were obtained:
human KHK-C = human KHK-C (Homo sapiens (Human), UniProt P50053); experiment: KHK Biochemical Assay (IC50), ADP-Glo, KHK-C; conditions: ADP-Glo; average of at least two separate assays
Method in brief: (§1)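 Luminescent ADP-Glo read-out of ADP made by His-tagged KHK (BL21 (DE3) expression, Ni-NTA). Enzyme and compound sat together 30 min before ATP/fructose addition, then reacted 4 h at RT in Hepes pH 7.4 buffer with KCl, MgCl2, Triton-X. Quench 1 h, detection 1 h.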

human KHK-A = human KHK-A (Homo sapiens (Human), UniProt P50053); experiment: KHK Biochemical Assay (IC50), ADP-Glo, KHK-A; conditions: ADP-Glo; average of at least two separate assays
Method in brief: as §1

human KHK-A, sequence (P50053 other isoform, or with tags, fused parts or gaps): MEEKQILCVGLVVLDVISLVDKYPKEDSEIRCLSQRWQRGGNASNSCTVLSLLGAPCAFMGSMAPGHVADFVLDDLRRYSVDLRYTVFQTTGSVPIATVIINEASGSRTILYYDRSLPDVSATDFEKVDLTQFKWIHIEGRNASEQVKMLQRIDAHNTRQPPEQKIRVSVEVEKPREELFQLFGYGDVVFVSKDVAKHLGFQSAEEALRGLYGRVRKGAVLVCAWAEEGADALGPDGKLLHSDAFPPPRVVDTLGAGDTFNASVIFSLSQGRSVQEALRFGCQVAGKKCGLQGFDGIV
human KHK-C, sequence (P50053 whole entry): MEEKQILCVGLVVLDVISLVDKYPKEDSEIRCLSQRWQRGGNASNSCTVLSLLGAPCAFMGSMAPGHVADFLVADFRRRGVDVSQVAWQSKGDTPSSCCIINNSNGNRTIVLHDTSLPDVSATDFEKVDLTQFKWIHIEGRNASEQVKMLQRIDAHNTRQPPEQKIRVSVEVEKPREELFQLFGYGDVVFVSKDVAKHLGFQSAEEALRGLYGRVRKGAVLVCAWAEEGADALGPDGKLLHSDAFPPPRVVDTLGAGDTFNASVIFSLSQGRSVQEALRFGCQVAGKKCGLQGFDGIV

Row | IC50 (human KHK-C) | IC50 (human KHK-A) | Compound
1 | 42.7 nM | 46.1 nM | C[C@H]1CCN1c1nc2c(c(-c3ccc4c(O)n[nH]c4c3)n1)CCC2 [Example 120, (S)-6-(2-(2-methylazetidin-1-yl)-6,7-dihydro-5H-cyclopenta[d]pyrimidin-4-yl)-1H-indazol-3-ol]
2 | 219 nM | 308 nM | C[C@H]1[C@H](O)CN1c1nc2c(c(-c3ccc4c(c3)CN(C)C4=O)n1)CCC2 [Example 194, 5-[2-[(2S,3R)-3-hydroxy-2-methyl-azetidin-1-yl]-6,7-dihydro-5H-cyclopenta[d]pyrimidin-4-yl]-2-methyl-isoindolin-1-one]
3 | 98.3 nM | 124 nM | C[C@H]1[C@H](F)CN1c1nc2c(c(-c3ccc(S(N)(=O)=O)cc3)n1)CCC2 [Example 198, 4-[2-[(2S,3R)-3-fluoro-2-methyl-azetidin-1-yl]-6,7-dihydro-5H-cyclopenta[d]pyrimidin-4-yl]benzenesulfonamide]
4 | 149 nM | 282 nM | C[C@H]1[C@H](O)CN1c1nc2c(c(-c3ccc(S(N)(=O)=O)cc3)n1)CCC2 [Example 199, 4-[2-[(2S,3R)-3-hydroxy-2-methyl-azetidin-1-yl]-6,7-dihydro-5H-cyclopenta[d]pyrimidin-4-yl]benzenesulfonamide]
5 | 108 nM | 79.9 nM | C[C@H]1CCN1c1nc2c(c(-c3cncc(S(N)(=O)=O)c3)n1)CCC2 [Example 205, 5-[2-[(2S)-2-methylazetidin-1-yl]-6,7-dihydro-5H-cyclopenta[d]pyrimidin-4-yl]pyridine-3-sulfonamide]
6 | 5590 nM | 10500 nM | C[C@H]1CCN1c1nc(-c2ccccc2)c2cccnc2n1 [Example 212, 2-[(2S)-2-methylazetidin-1-yl]-4-phenyl-pyrido[2,3-d]pyrimidine]
7 | 37.7 nM | 37.5 nM | CNS(=O)(=O)c1cccc(-c2nc(N3CC[C@@H]3C)nc3c2CCC3)c1 [Example 214, N-methyl-3-[2-[(2S)-2-methylazetidin-1-yl]-6,7-dihydro-5H-cyclopenta[d]pyrimidin-4-yl]benzenesulfonamide]
8 | 106 nM | 78.9 nM | C[C@H]1CCN1c1nc2c(c(-c3cccc(S(=O)(=O)N(C)C)c3)n1)CCC2 [Example 215, N,N-dimethyl-3-[2-[(2S)-2-methylazetidin-1-yl]-6,7-dihydro-5H-cyclopenta[d]pyrimidin-4-yl]benzenesulfonamide]
9 | 485 nM | 418 nM | C[C@H]1CCN1c1nc2c(c(-c3cccc(C(=O)NCc4ccccc4)c3)n1)CCC2 [Example 218, N-benzyl-3-[2-[(2S)-2-methylazetidin-1-yl]-6,7-dihydro-5H-cyclopenta[d]pyrimidin-4-yl]benzamide]
10 | 79.2 nM | 75.1 nM | C[C@H]1CCN1c1nc2c(c(-c3ccc4c(c3)CCN(C)C4=O)n1)CCC2 [Example 222, (S)-2-methyl-6-(2-(2-methylazetidin-1-yl)-6,7-dihydro-5H-cyclopenta[d]pyrimidin-4-yl)-3,4-dihydroisoquinolin-1(2H)-one]
11 | 143 nM | 159 nM | C[C@H]1CCN1c1nc2c(c(-c3cccc(CNC(=O)C(C)(C)O)c3)n1)CCC2 [Example 228, 2-hydroxy-2-methyl-N-[[3-[2-[(2S)-2-methylazetidin-1-yl]-6,7-dihydro-5H-cyclopenta[d]pyrimidin-4-yl]phenyl]methyl]propanamide]
12 | 95.7 nM | 108 nM | C[C@@H](O)C(=O)NCc1cccc(-c2nc(N3CC[C@@H]3C)nc3c2CCC3)c1 [Example 229, (2R)-2-hydroxy-N-[[3-[2-[(2S)-2-methylazetidin-1-yl]-6,7-dihydro-5H-cyclopenta[d]pyrimidin-4-yl]phenyl]methyl]propanamide]
13 | 107 nM | 96.7 nM | C[C@H](O)C(=O)NCc1cccc(-c2nc(N3CC[C@@H]3C)nc3c2CCC3)c1 [Example 230, (2S)-2-hydroxy-N-[[3-[2-[(2S)-2-methylazetidin-1-yl]-6,7-dihydro-5H-cyclopenta[d]pyrimidin-4-yl]phenyl]methyl]propanamide]
14 | 9.7 nM | 55.7 nM | C[C@H]1CCN1c1nc2c(c(-c3ccc(C4CNC4)cc3)n1)CCC2 [Example 233, 4-[4-(azetidin-3-yl)phenyl]-2-[(2S)-2-methylazetidin-1-yl]-6,7-dihydro-5H-cyclopenta[d]pyrimidine]
15 | 70.6 nM | 117 nM | C[C@H]1CCN1c1nc2c(c(-c3ccc4c(c3)C(=O)NS4(=O)=O)n1)CCC2 [Example 239, (S)-5-(2-(2-methylazetidin-1-yl)-6,7-dihydro-5H-cyclopenta[d]pyrimidin-4-yl)benzo[d]isothiazol-3(2H)-one 1,1-dioxide]
16 | 1070 nM | 803 nM | C[C@H]1CCN1c1nc2c(c(-c3ccc4nc(C(F)(F)F)[nH]c4c3)n1)CCC2 [Example 241, 6-[2-[(2S)-2-methylazetidin-1-yl]-6,7-dihydro-5H-cyclopenta[d]pyrimidin-4-yl]-2-(trifluoromethyl)-1H-benzimidazole]
17 | 135 nM | 98.6 nM | C[C@H]1CCN1c1nc2c(c(-c3ccc(CS(N)(=O)=O)cc3)n1)CCC2 [Example 242, [4-[2-[(2S)-2-methylazetidin-1-yl]-6,7-dihydro-5H-cyclopenta[d]pyrimidin-4-yl]phenyl]methanesulfonamide]

Row | IC50 (human KHK-C) | IC50 (human KHK-A) | Compound
18 | > 5000 nM | > 5000 nM | C[C@H]1CCN1c1nc2c(c(-c3ccc4[nH]nc(C(F)(F)F)c4c3)n1)CCC2 [Example 243, 5-[2-[(2S)-2-methylazetidin-1-yl]-6,7-dihydro-5H-cyclopenta[d]pyrimidin-4-yl]-3-(trifluoromethyl)-1H-indazole]
19 | 312 nM | 380 nM | C[C@H]1CCN1c1nc2c(c(-c3cnn(C(F)F)c3)n1)CCC2 [Example 259, 4-[1-(difluoromethyl)pyrazol-4-yl]-2-[(2S)-2-methylazetidin-1-yl]-6,7-dihydro-5H-cyclopenta[d]pyrimidine]
20 | 633 nM | 746 nM | C[C@H]1CCN1c1nc2c(c(-c3ccccc3O)n1)CCC2 [Example 260, 2-[2-[(2S)-2-methylazetidin-1-yl]-6,7-dihydro-5H-cyclopenta[d]pyrimidin-4-yl]phenol]
21 | 153 nM | 133 nM | C[C@H]1CCN1c1nc2c(c(-c3cccc(O)c3)n1)CCC2 [Example 261, 3-[2-[(2S)-2-methylazetidin-1-yl]-6,7-dihydro-5H-cyclopenta[d]pyrimidin-4-yl]phenol]
22 | 141 nM | 180 nM | C[C@H]1CCN1c1nc2c(c(-c3ccc(O)cc3)n1)CCC2 [Example 262, 4-[2-[(2S)-2-methylazetidin-1-yl]-6,7-dihydro-5H-cyclopenta[d]pyrimidin-4-yl]phenol]
23 | 646 nM | 758 nM | C[C@H]1CCN1c1nc2c(c(-c3ccc4c(c3)NC(=O)C4(C)C)n1)CCC2 [Example 264, 3,3-dimethyl-6-[2-[(2S)-2-methylazetidin-1-yl]-6,7-dihydro-5H-cyclopenta[d]pyrimidin-4-yl]indolin-2-one]
24 | 532 nM | 433 nM | C[C@H]1CCN1c1nc(-c2ccns2)c2c(n1)C1CC1C2 (stereo partly drawn) [Example 273, 5-(2-((S)-2-methylazetidin-1-yl)-5,5a,6,6a-tetrahydrocyclopropa[4,5]cyclopenta[1,241]pyrimidin-4-yl)isothiazole]
25 | 201 nM | 159 nM | C[C@H]1CCN1c1nc2c(c(-c3cccc(-c4ccn[nH]4)c3)n1)CCC2 [Example 279, (S)-4-(3-(1H-pyrazol-5-yl)phenyl)-2-(2-methylazetidin-1-yl)-6,7-dihydro-5H-cyclopenta[d]pyrimidine]
26 | 188 nM | 122 nM | CNC(=O)c1ccc(-c2nc(N3CC[C@@H]3C)nc3c2CCC3)cn1 [Example 280, (S)—N-methyl-5-(2-(2-methylazetidin-1-yl)-6,7-dihydro-5H-cyclopenta[d]pyrimidin-4-yl)picolinamide]
27 | 48.2 nM | 42.6 nM | C[C@H]1CCN1c1nc2c(c(-c3ccnc(NCCO)c3)n1)CCC2 [Example 282]
28 | 753 nM | 718 nM | C[C@H]1[C@H](O)CN1c1nc2c(c(-c3cccc(S(N)(=O)=O)c3)n1)CCOC2 [Example 286]
29 | 98 nM | 141 nM | C[C@H]1CCN1c1nc2c(c(-c3ccc(N4CCOCC4)nc3)n1)CCC2 [Example 291, (S)-4-(5-(2-(2-methylazetidin-1-yl)-6,7-dihydro-5H-cyclopenta[d]pyrimidin-4-yl)pyridin-2-yl)morpholine]
30 | 89.1 nM | 65.7 nM | CNC(=O)c1ccc(-c2nc(N3CC[C@@H]3C)nc3c2CCC3)cc1 [Example 292, (S)—N-methyl-4-(2-(2-methylazetidin-1-yl)-6,7-dihydro-5H-cyclopenta[d]pyrimidin-4-yl)benzamide]
31 | 200 nM | 153 nM | C[C@H]1CCN1c1nc2c(c(-c3ccc(C(=O)N(C)C)cc3)n1)CCC2 [Example 293, (S)—N,N-dimethyl-4-(2-(2-methylazetidin-1-yl)-6,7-dihydro-5H-cyclopenta[d]pyrimidin-4-yl)benzamide]
32 | 3400 nM | 3890 nM | C[C@H]1CCN1c1nc2c(c(-c3ccc(C4(NC(=O)OC(C)(C)C)CC4)cc3)n1)CCC2 [Example 294, (S)-tert-butyl (1-(4-(2-(2-methylazetidin-1-yl)-6,7-dihydro-5H-cyclopenta[d]pyrimidin-4-yl)phenyl)cyclopropyl)carbamate]
33 | 3000 nM | 2090 nM | C[C@H]1CCN1c1nc2c(c(-c3ccc(C(=O)Nc4ccccc4)cc3)n1)CCC2 [Example 296, (S)-4-(2-(2-methylazetidin-1-yl)-6,7-dihydro-5H-cyclopenta[d]pyrimidin-4-yl)-N-phenylbenzamide]
